Experimental data from PubChem BioAssay (NCI).
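Growth conditions: 96-well plates. Treatment: test compound, 48 hours, 5 concentrations. Analysis: linear interpolation between bracketing concentrations; unreached endpoints set to highest concentration. Definition used: TGI = concentration required for complete inhibition of growth.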

Columns and labels:
Assay in all cases: NCI-60 cell line screen, 48 h
RXF 393 renal = system: RXF 393 renal
MDA-N = system: MDA-N
NCI-H226 lung = system: NCI-H226 lung
MDA-MB-231 breast = system: MDA-MB-231 breast
UACC-62 melanoma = system: UACC-62 melanoma
U251 CNS = system: U251 CNS
UACC-257 melanoma = system: UACC-257 melanoma
ACHN renal = system: ACHN renal
SF-268 CNS = system: SF-268 CNS
HL-60(TB) leukemia = system: HL-60(TB) leukemia
HS 578T breast = system: HS 578T breast
SR leukemia = system: SR leukemia
UO-31 renal = system: UO-31 renal
HCT-116 colon = system: HCT-116 colon
OVCAR-5 ovarian = system: OVCAR-5 ovarian
M14 melanoma = system: M14 melanoma
HT29 colon = system: HT29 colon
SF-295 CNS = system: SF-295 CNS
SF-539 CNS = system: SF-539 CNS
TK-10 renal = system: TK-10 renal
HOP-62 NSCLC = system: HOP-62 NSCLC
SK-MEL-28 melanoma = system: SK-MEL-28 melanoma
SNB-19 CNS = system: SNB-19 CNS
RPMI-8226 leukemia = system: RPMI-8226 leukemia
SK-MEL-2 melanoma = system: SK-MEL-2 melanoma
HOP-92 NSCLC = system: HOP-92 NSCLC
NCI-H23 lung = system: NCI-H23 lung
MDA-MB-435 = system: MDA-MB-435
HCT-15 colon = system: HCT-15 colon
T-47D breast = system: T-47D breast
SN12C renal = system: SN12C renal
SNB-75 CNS = system: SNB-75 CNS
A549 NSCLC = system: A549 NSCLC
PC-3 prostate = system: PC-3 prostate
NCI-H522 lung = system: NCI-H522 lung
OVCAR-8 ovarian = system: OVCAR-8 ovarian
NCI/ADR-RES ovarian = system: NCI/ADR-RES ovarian
786-0 renal = system: 786-0 renal
CCRF-CEM leukemia = system: CCRF-CEM leukemia
BT-549 breast = system: BT-549 breast
IGROV1 ovarian = system: IGROV1 ovarian
OVCAR-4 ovarian = system: OVCAR-4 ovarian
SK-OV-3 ovarian = system: SK-OV-3 ovarian
CAKI-1 renal = system: CAKI-1 renal
MCF7 breast = system: MCF7 breast
KM12 colon = system: KM12 colon
A498 renal = system: A498 renal
NCI-H460 lung = system: NCI-H460 lung
SK-MEL-5 melanoma = system: SK-MEL-5 melanoma
EKVX NSCLC = system: EKVX NSCLC
LOX IMVI melanoma = system: LOX IMVI melanoma
OVCAR-3 ovarian = system: OVCAR-3 ovarian
DU-145 prostate = system: DU-145 prostate
HCC-2998 colon = system: HCC-2998 colon
MOLT-4 leukemia = system: MOLT-4 leukemia
COLO 205 colon = system: COLO 205 colon
K-562 leukemia = system: K-562 leukemia
SW-620 colon = system: SW-620 colon

`CCc1nc(N)nc(N)c1-c1ccc(Cc2ccccc2)c([N+](=O)[O-])c1` was tested, and the TGI (RXF 393 renal) was > 84.3 µM, the TGI (MDA-N) was > 81.8 µM and the TGI (NCI-H226 lung) was > 68.9 µM. The TGI (MDA-MB-231 breast) was > 70.8 µM, the TGI (UACC-62 melanoma) was > 65.6 µM and the TGI (U251 CNS) was > 65.5 µM. For the same molecule, the TGI (UACC-257 melanoma) was > 71 µM, the TGI (ACHN renal) was > 61.2 µM and the TGI (SF-268 CNS) was > 56.2 µM. For the same molecule, the TGI (HL-60(TB) leukemia) was > 53.4 µM, the TGI (HS 578T breast) was > 67.1 µM and the TGI (SR leukemia) was 6.11 µM. For the same molecule, the TGI (UO-31 renal) was > 54.5 µM, the TGI (HCT-116 colon) was > 61.1 µM and the TGI (OVCAR-5 ovarian) was > 100 µM. For the same molecule, the TGI (M14 melanoma) was > 84.9 µM, the TGI (HT29 colon) was > 61.5 µM and the TGI (SF-295 CNS) was > 65.5 µM. The TGI (SF-539 CNS) was > 62.4 µM, the TGI (TK-10 renal) was > 71.4 µM and the TGI (HOP-62 NSCLC) was > 69.7 µM. For the same molecule, the TGI (SK-MEL-28 melanoma) was > 100 µM, the TGI (SNB-19 CNS) was > 100 µM and the TGI (RPMI-8226 leukemia) was > 54.3 µM. For the same molecule, the TGI (SK-MEL-2 melanoma) was > 100 µM, the TGI (HOP-92 NSCLC) was > 59.3 µM and the TGI (NCI-H23 lung) was > 60.4 µM. For the same molecule, the TGI (MDA-MB-435) was > 100 µM, the TGI (HCT-15 colon) was > 59.7 µM and the TGI (T-47D breast) was > 85.4 µM. The TGI (SN12C renal) was > 100 µM, the TGI (SNB-75 CNS) was > 60 µM and the TGI (A549 NSCLC) was > 70.7 µM. For the same molecule, the TGI (PC-3 prostate) was > 100 µM, the TGI (NCI-H522 lung) was > 35.8 µM and the TGI (OVCAR-8 ovarian) was > 62.1 µM. For the same molecule, the TGI (NCI/ADR-RES ovarian) was > 62.8 µM, the TGI (786-0 renal) was > 60.7 µM and the TGI (CCRF-CEM leukemia) was > 62 µM. The TGI (BT-549 breast) was > 65.8 µM, the TGI (IGROV1 ovarian) was > 64.2 µM and the TGI (OVCAR-4 ovarian) was > 93.3 µM. The TGI (SK-OV-3 ovarian) was > 83.6 µM, the TGI (CAKI-1 renal) was > 100 µM and the TGI (MCF7 breast) was > 65.1 µM. For the same molecule, the TGI (KM12 colon) was > 62.4 µM, the TGI (A498 renal) was > 74.2 µM and the TGI (NCI-H460 lung) was > 60.8 µM. For the same molecule, the TGI (SK-MEL-5 melanoma) was > 100 µM, the TGI (EKVX NSCLC) was > 58.8 µM and the TGI (LOX IMVI melanoma) was > 80.9 µM. The TGI (OVCAR-3 ovarian) was > 76 µM, the TGI (DU-145 prostate) was > 76.3 µM and the TGI (HCC-2998 colon) was > 64.6 µM. The TGI (MOLT-4 leukemia) was > 63.1 µM, the TGI (COLO 205 colon) was > 65.4 µM and the TGI (K-562 leukemia) was > 59.5 µM. For the same molecule, the TGI (SW-620 colon) was > 64.2 µM.
